Where two headings read alike, the source gives them in different places.
Legend:
in vivo = settings: mouse, male and female mice, oral, read-out: akute Toxizität LD50
From the text: Die akute Toxizität wurde an jeweils 5 männlichen und 5 weiblichen Mäusen im Gewicht von 18 - 23 Gramm pro dosi bestimmt. Die Applikation der Prüfsubstanzen erfolgte oral. Die Berechnung der LD50 wurde nach Litchfield und Wilcoxon durchgeführt.

Größe der Pupille [1] = settings: mouse, in vivo, po
From the text: (§1) Die Wirkung der Substanzen auf die Größe der Pupille wurde an weiblichen Mäusen im Gewicht zwischen 18 und 23 Gramm nach der Versuchsordnung von R.Pulewka, Exp.Pathol. […] 30, 60, 90, 120, 180 und 240 Minuten nach oraler Präparatgabe wurde die Pupillenweite bestimmt und die x-fache Veränderung zum Ausgangswert berechnet. Als ED3-fach gilt die Dosis, bei der eine dreifache Pupillenerweiterung im Vergleich zum Ausgangswert auftritt.

[2] = system: streßinduzierten Magenulzera; test: Inhibition of stress-induced gastric ulcers (immobilisation ulcer, method of Brodie); assay type: in vivo, Ratten; settings: Rattus norvegicus, read-out: Immobilisationsulkus ED50
From the text: Die Hemmwirkung auf die Bildung von streßinduzierten Magenulzera wurde nach der Methode von D.A.Brodie, Gastroenterolody, 38 (1960), 50, an weiblichen Ratten im Gewicht von 150 - 180 Gramm vom VEB Versuchstierproduktion Schönwalde bestimmt. Die Nahrungskarenz vor Versuchsbeginn betrug 48 Stunden, bei Wasser ad libitum. Die Testsubstanzen wurden unmittelbar vor Versuchsbeginn oral, mittels Schlundsonde appliziert. Die Immobilisation erfolgte mittels Gipsbinden über 18 Stunden. Während der Versuchsdauer war die Raumtemperatur konstant 20° C. Nach Versuchsende wurden die Tiere durch Äther getötet, die Mägen entnommen, entlang der kleinen Kurvatur aufgeschnitten und die Drüsenschleimhautdefekte nach Zahl und Länge im Vergleich zur Kontrollgruppe beurteilt. Für die statistische Berechnung diente die Probit-Regressions-Analyse.

[3] = system: phenylbutazoninduzierte Magenulzera; test: Inhibition of phenylbutazone-induced gastric ulcers (model of Beattie et al.); assay type: in vivo, Ratten; settings: Rattus norvegicus, 48 h; female rats, oral dose half an hour before each s.c. injection of 150 mg/kg Phenylbutazon on two days; read-out: Phenylbutazonulkus ED50
Description: Die Hemmwirkung der Verbindungen auf phenylbutazoninduzierte Magenulzera wurde in Anlehnung an das Modell von Beattie und Mitarbeiter, Arzneimittelforschung, 29, (1979), 1812 ermittelt. Für die Untersuchung kamen weibliche Ratten der hauseigenen Zucht im Gewicht von 150 - 180 Gramm zur Anwendung.
Die Nahrungskarenz vor Versuchsbeginn betrug 24 Stunden, bei Wasser ad libitum. Während des Versuchs wurden die Tiere im Klimaraum bei einer Temperatur zwischen 22° C und 23° C gehalten. Die Ratten erhielten zwei Tage hintereinander jeweils 7 Uhr morgens eine s.c. Injektion von 150 mg/kg Phenylbutazon und die Tötung erfolgte sechs Stunden nach der letzten Injektion durch Nackenschlag. Die herauspräparierten Mägen wurden entlang der kleinen Kurvatur aufgeschnitten und die Schleimhautdefekte nach Zahl und Länge beurteilt. Die Applikation der Prüfsubstanzen erfolgte oral, eine halbe Stunde vor jeder Phenylbutazoninjektion.

Größe der Pupille [4] = test: Effect on pupil size (mydriasis, method of Pulewka); settings: female mice, oral; dose that widens the pupil three-fold versus baseline
From the text: as §1

[5] = female rats, oral dose immediately before start, immobilisation for 18 hours, probit regression analysis

Compound | LD50 (in vivo) [mg/kg] | Pupillomotorik ED3-fach (Größe der Pupille [1]) | ED50 [2, 5] [mg/kg] | ED50 [3] [mg/kg] | ED50 ([2]; po, 18 h) [mg/kg] | Pupillomotorik ED3-fach (Größe der Pupille [4]) [mg/kg]
CN1C(=O)c2ccccc2N(C(=O)CN2CCN(C(=O)c3ccco3)CC2)c2ccc(Cl)cc21 [D, 8-Chlor-5, 10-dihydro-5-(2-{4-[(2-furanyl)-carbonyl]-1-piperazinyl}-acetyl)-10-methyl-11H-dibenzolbenzo[b,e][1,4]-diazepin-11-on] | 1600 | 250 mg/kg | 26 | 36 | – | –
O=C1Nc2ccccc2N(C(=O)CN2CCN(C(=O)c3ccco3)CC2)c2ccccc21 [C, 5,10-Dihydro-5-(2-{4-[(2-furanyl)-carbonyl] -1-piperazinyl}-acetyl)-11H-dibenzo[b,e] [1,4]diazepin-11-on] | 2000 | 67 mg/kg | 14 | 20 | – | –
O=C1Nc2cc(Cl)ccc2N(C(=O)CN(CCO)CCO)c2ccccc21 [A, 8-Chlor-5,10-dihydro-5-[bis-(2-hydroxyäthyl)amino-acetyl]-11H-dibenzo[b,e] [1,4]diazepin-11-on] | 2000 | 30 mg/kg | 6 | 5 | – | –
CN1C2CCC1CC(OC(=O)C(CO)c1ccccc1)C2 (racemic) [Atropin, reference compound] | – | 0,8 mg/kg | – | – | 0.6 | –
CN1CCN(CC(=O)N2c3ccccc3C(=O)Nc3cccnc32)CC1 [Pi renzepin, Pirenzepin, reference compound] | – | – | 11 | 18 | – | 30
O=C1Nc2ccccc2N(C(=O)CN(CCO)CCO)c2ccccc21 [B, 5,10-Dihydro-5-[bis-(2-hydroxyäthyl) -aminoacetyl]-11H-dibenzo[b,e][1,4] diazepin-11-on] | 2000 | 4 mg/kg | 1 | 1.6 | – | –
CN1C(=O)c2ccccc2N(C(=O)CN(CCO)CCO)c2ccccc21 [E, 5,10-Dihydro-10-methyl-5-[bis-{2-hydroxyäthyl)-amino-acetyl]-11H-dibenzo[b,e] [1,4]diazepin-11-on] | 1000 | 95 mg/kg | 27 | 22 | – | –

From patent EP0139627A1, “Process for the preparation of 5,10-dihydro-1H-dibenzo [B,E] [1,4] diazepin-11-ones substituted in position 5” (ARZNEIMITTELWERK DRESDEN GmbH, priority 1983, dated 1985)
